Measured values from BindingDB's records for doi:10.1021/jm00388a021 (1987).

How the values were obtained:
[1] = molecular target: Thymidine kinase (Herpes simplex virus 2); assay: Compound was evaluated for Kinetic constant for viral thymidine kinase of Herpes simplex virus (HSV) -2
[2] = molecular target: Thymidine kinase (Herpes simplex virus 1); assay: Compound was evaluated for Kinetic constant for viral thymidine kinase of Herpes simplex virus (HSV) -1

With `O=c1[nH]c(=O)n([C@@H]2O[C@H](CO)[C@@H](O)[C@@H]2F)cc1I` [FIALURIDINE] the Ki [1] was 950 nM and the Ki [2] was 140 nM.
